Test results published in patent publication US20140205582A1, “MEGAKARYOCYTE PROGENITOR CELLS FOR PRODUCTION OF PLATELETS” (CELLERANT THERAPEUTICS, INC., priority 2011, published 2014).
Entries after “also recorded” stand apart in the source; their conditions may differ.

System: human CD34+ cells
Experiment: Expansion of CD34+ cells into MKPs in serum-free culture
Assay type: cell-based
Conditions: 60 ng/ml IL-9 with TPO mimetic and IL-1, 8 days, 3 donors
Source text: Isolation of human CD34^+ cells. G-CSF mobilized peripheral blood was harvested from healthy donors via leukapheresis (see, e.g., Kawamoto et al. (2009) Stem Cells 27:2857). CD34+ cells were positively selected using magnetic beads (Dynal, Lake Success, N.Y.) linked to anti-CD34 monoclonal antibody on an Isolex Device (Baxter, Deerfield, Ill.). […] Aliquots of 15-20×10^6 cells/ml were cryopreserved until use.
Expansion of CD34^+ cells. CD34^+ cells from donors were thawed, pooled as indicated, and seeded at 5×10^5 cells/ml in serum-free X-vivo 15 medium (Lonza, Walkersville, Md.) supplemented with IX GlutaMAX (Invitrogen, Carlsbad, Calif.). Cytokines were added as follows. […] Cultures were incubated at 37° C. in a humidified atmosphere containing 5% carbon dioxide. Viable cells were counted daily and cell concentration was readjusted to about 5×10^5 cells/ml by the addition of fresh medium with cytokines.
Analysis of MKPs. Cell surface marker expression was analyzed by flow cytometry using CD15b, CD33, CD34, CD41, CD42a, CD90, and CD184 antibodies. Prior to antibody staining, cells were washed with HBSS containing 2% BSA and blocked with rat and mouse IgG (SouthernBiotech, Birmingham, AL) for 10 minutes at 4° C. […]

IL-9: interleukin-9 cytokine, also known as megakaryoblast growth factor
effect on number of MKPs: increased the number of MKPs from all 3 donors; also recorded: increases the size of all populations
